Assay [1] has as its system SU-DHL-9 (EZH2 wildtype, MEF2B wildtype, MLL2 indel). Put plainly: Cell viability of lymphoma cell lines, SU-DHL-9 (CBX2 compound). The conditions noted are these: SU-DHL-9, in words. The format is cell-based, human. The procedure: (§1) Compound 51 (NSC2540) was tested for its effect on the viability of four lymphoma cell lines in vitro using standard methods. The cell lines tested were DoHH-2, WSU-DLCL2, DB and SU-DHL-9 (EZH2 wildtype, MEF2B wildtype, MLL2 indel).

The subject of assay [2] is DoHH2 Cells (wildtype for EZH2, MEF2B and MLL2). Briefly: Cell viability of lymphoma cell lines, DoHH-2. The format is cell-based. To be noted: DoHH-2, in words. As to the method:
(§2) Compound 50 was tested for its effect on the viability of three lymphoma cell lines in vitro using standard methods. The cell lines tested were: DoHH-2 (wildtype for EZH2, MEF2B and MLL2); WSU-DLCL2 (EZH2 mutation Y641F (wildtype for MEF2B and MLL2)) and DB (EZH2 mutation Y641N, the MEF2B mutation D83V and three mutations in MLL2 (two of which lead to a truncated protein after residue Q2736 and the third allele has a 1 base pair deletion at residue P480)).
as §1

The subject of a further assay is MDA-MB-231. Put plainly: Viability of breast cancer cell lines, MDA-MB-231. The format is cell-based. To be noted: MDA-MB-231, in words. As to the method:
(§3) Compounds 50 and 51 were tested for their effect on the viability of four breast cancer cell lines in vitro using standard methods. The cell lines tested were: MCF-7, MDA-MB-231, HCC202 (CRL-2316) and HCC1500 (CRL-2329).

In another assay the test system is HCC202 (CRL-2316). Put plainly: Viability of breast cancer cell lines, HCC202. The conditions noted are these: in words. The format is cell-based. The procedure:
as §3

Assay [3] deals with WSU-DLCL2 Cells (EZH2 mutation Y641F). Briefly: Cell viability of lymphoma cell lines, WSU-DLCL2. The format is cell-based, human. To be noted: WSU-DLCL2, in words. As to the method:
as §2, §1

Assay [4] concerns WSU-DLCL2 human diffuse large cell lymphoma tumours. Put plainly: WSU-DLCL2 mouse xenograft model. The format is in vivo. The conditions noted are these: intraperitoneal 4 mg/kg for 5 days then 2 mg/kg for 5 days, evaluation at day 12; p=0.0125. The procedure:
WSU-DLCL2 tumourfragments were transplanted subcutaneously into the flank of male NSG mice. Mice were 9.0-9.3 weeks at transplantation and treatment was started when the mice were between 12.9 and 13.1 weeks. 8 mice were used per group and treatment was daily for ten days with evaluation at day 12. Tumoursize determined by caliper every four days, tumourvolume calculated by length×width^2/2.
The groups of mice were treated with vehicle (control), 1 mg/kg Compound 50 or 4 mg/kg Compound 50 by intraperitoneal injection. Vehicle was 50% DMSO/50% PEG-400.
WSU-DLCL2 tumourfragments were transplanted subcutaneously into the flank of male NSG mice. Mice were 5.3-9.4 weeks at transplantation and treatment was started when the mice were between 8.6 and 12.7 weeks. 8 mice were used in the control group and 6 mice were used in the Compound 51 treated group. Treatment was daily for ten days with evaluation at day 12. Tumoursize determined by caliper every four days, tumourvolume calculated by length×width^2/2.
The groups of mice were treated with vehicle (control) or Compound 51 by intraperitoneal injection at 4 mg/kg for the first 5 days and 2 mg/kg for the subsequent 5 days. Vehicle was 50% DMSO/50% PEG-400.

A further assay deals with HCC1500 (CRL-2329). Briefly: Viability of breast cancer cell lines, HCC1500. The format is cell-based. The conditions noted are these: in words. As to the method: as §3

Consider one compound from US9552457B2, “Reprogramming effector protein interactions to correct epigenetic defects in cancer” (BRITISH COLUMBIA CANCER AGENCY BRANCH, priority 2012, dated 2017).

`OC(c1cc(-c2ccc(Cl)c(Cl)c2)nc2ccccc12)C1CCCCN1` (stereo not shown) [Compound 51]: the effect on viability entry (in assay [1]; in assay [2]; in the assay with MDA-MB-231; in the assay with HCC202 (CRL-2316); in assay [3]; with HCC1500 (CRL-2329)) was “able to decrease viability” each time. The “effect on tumour volume” value in assay [4] was “able to significantly reduce tumourvolume”.
